# Marks after values point to notes of the source that are not given here.
# What was measured:
# [1] = Weight gain, feed efficiency and carcass characteristics, last 14 days of growing period in broiler chickens; type: in vivo; settings: for Dressing Percentage / Fat Pad Weight / Final Weight / Hot Carcass Weights / Pen Feed Intake / Total 14 day Weight Gain / Viscera Weight / Feed Efficiency F/G: day 35-49; for Feed Efficiency F/G: pen feed intake/total pen weight; for increase in weight gain over control / improvement of feed efficiency versus control: 14-day treatment period
# Excerpt: Approximately 1500 Peterson-Hubbard, day-old, male chicks were used in a randomized, complete-block design with 4 treatments (Control, Clenbuterol at 1 PPM, and Compound 6 at 3 and 15 PPM (mg/kg feed)). The testing facility contained 36 pens, divided equally into 6 blocks. Treatments were randomly allotted to pens within each block. Each treatment consisted of 6 pens with 10 birds per pen.
# Day-of-age birds were obtained from Pine Manor Hatchery in Goshen, Ind. Approximately 40 birds per pen were set at random upon receipt. On day 30 of the growout period, all birds were weighed and the 15 birds closest to the block mean were selected. These birds were allowed to acclimate until day 35 of age. On that day, all remaining birds were weighed again, and the 10 birds/pen closest to the block mean were chosen for the treatment phase. Birds were provided ad libitum access to feed and water throughout the trial. All birds were fed a 23% crude protein corn-soy ration from day 1 until day 18 of age. The feed was changed to a 20% crude protein corn-soy ration from day 18 to day 49. The treatment feed was mixed using the same 20% crude protein basal ration. Treatments were administered in the feed from day 35 through day 49. Feed consumption was calculated over the entire 14-day treatment period. Birds were weighed at trial completion (day 49), and transported to Purdue University, West Lafayette, Ind. 47907, U.S.A. meat laboratory for slaughter and carcass measurements on day 50. Weights of the hot carcass, fat pad, and viscera were taken on all animals.
# [2] = Weight gain, feed efficiency, breast and leg quarter weights, last 28 days of growing period in broiler chickens; type: in vivo; settings: for Bone-in, Skin-on Breast Weight / Bone-in, Skin-on leg Quarter Weight / Dressing Percentage / Fat Pad Weight / Final Weight Day 49 / Hot Carcass Weight / Interim Weight Day 35 / Pen Feed Intake / Total Weight Gain (d 21-49) / Viscera Weight / Weight Gain Period 1 (d 21-35) / Weight Gain Period 2 (d 35-49) / Feed Efficiency F/G: day 21-49; for Feed Efficiency F/G: pen feed intake/total pen weight; for improvement of feed efficiency (feed/gain) compared with control: 28-day treatment period
# Excerpt: Approximately 2500 Peterson-Hubbard, day-old, male chicks were used in a randomized, complete-block design with 3 treatments (Control and Compound 6 at 3 and 15 PPM (mg/kg feed)). The testing facility contained two wings, each containing 30 pens. The pens in each wing were divided into 6 blocks of 5 pens. Treatments were randomly allotted within each block. Each treatment consisted of 12 pens with 10 birds per pen.
# Day-of-age birds were obtained from Pine Manor Hatchery in Goshen, Ind. Approximately 40 birds per pen were set at random upon receipt. On day 16 of the growout period, all birds were weighed and the 15 birds closest to the block mean were selected. These birds were allowed to acclimate until day 21 of age. On this day, all remaining birds were weighed again, and the 10 birds/pen closest to the block mean were chosen for the treatment phase. Birds were provided ad libitum access to feed and water throughout the trial. All birds were fed a 23% crude protein corn-soy ration from day 1 until day 18 of age. The feed was changed to a 20% crude protein ration for day 18 to day 49. The treatment feed was mixed using the 20% crude protein basal ration. Treatments were administered in the feed from day 21 through day 49. An interim weight was taken on day 35. Feed consumption was calculated over the entire 28-day treatment period. Birds were weighed at trial completion (day 49), and were transported to Purdue University meat laboratory for slaughter and carcass measurements on day, 50. Weights of the hot carcass; fat pad; viscera; bone-in, skin-on breast; and bone-in, skin-on, leg quarter were taken on all animals.
compound,measurement,setting,value
"CC(C)(Cc1ccc(Oc2ncccc2C(N)=O)cc1)NC[C@H](O)COc1cccc2[nH]ccc12 [Compound 6, (S)-2-[4-[2-[2-Hydroxy-3-(1H-indol-4-yloxy)propylamino]-2-methylpropyl]-phenoxy]-3-pyridinecarboxamide]",Dressing Percentage,[1]; 3 PPM in feed,72.43*
same,Fat Pad Weight,[1]; 3 PPM in feed,28.67 g
same,Final Weight,[1]; 3 PPM in feed,3.02 kg
same,Hot Carcass Weights,[1]; 3 PPM in feed,2175.69* g
same,Pen Feed Intake,[1]; 3 PPM in feed,25.74 kg
same,Total 14 day Weight Gain,[1]; 3 PPM in feed,1.30 kg
same,Viscera Weight,[1]; 3 PPM in feed,283.04 g
same,Feed Efficiency F/G,[1]; 3 PPM in feed,1.95
same,increase in weight gain over control,"[1]; 3 PPM, P=0.0987",3.17%
same,improvement of feed efficiency versus control,"[1]; 3 PPM, P=0.2936",2.50%
same,increase in hot carcass weights compared to control,"[1]; 3 PPM, P=0.0174",2.50%
same,increase in fat pad weight,"[1]; 3 PPM, P=0.1069",9.68%
same,decrease in viscera weights with respect to control,"[1]; 3 PPM, P=0.3981",1.50%
same,Dressing Percentage,[1]; 15 PPM in feed,72.63**
same,Fat Pad Weight,[1]; 15 PPM in feed,27.21 g
same,Final Weight,[1]; 15 PPM in feed,3.02 kg
same,Hot Carcass Weights,[1]; 15 PPM in feed,2182.55** g
same,Pen Feed Intake,[1]; 15 PPM in feed,25.25 kg
same,Total 14 day Weight Gain,[1]; 15 PPM in feed,1.30 kg
same,Viscera Weight,[1]; 15 PPM in feed,285.49 g
same,Feed Efficiency F/G,[1]; 15 PPM in feed,1.94
same,increase in weight gain over control,"[1]; 15 PPM, P=0.0756",3.17%
same,improvement of feed efficiency versus control,"[1]; 15 PPM, P=0.1957",3.00%
same,increase in hot carcass weights compared to control,"[1]; 15 PPM, P=0.0078",2.82%
same,increase in fat pad weight,"[1]; 15 PPM, P=0.4814",4.09%
same,decrease in viscera weights with respect to control,"[1]; 15 PPM, P=0.7279",0.65%
same,"Bone-in, Skin-on Breast Weight",[2]; 3 PPM in feed,618.03* g
same,"Bone-in, Skin-on leg Quarter Weight",[2]; 3 PPM in feed,665.64** g
same,Dressing Percentage,[2]; 3 PPM in feed,71.14**
same,Fat Pad Weight,[2]; 3 PPM in feed,51.67 g
same,Final Weight Day 49,[2]; 3 PPM in feed,2.78** kg
same,Hot Carcass Weight,[2]; 3 PPM in feed,1995.58** g
same,Interim Weight Day 35,[2]; 3 PPM in feed,1.66* kg
same,Pen Feed Intake,[2]; 3 PPM in feed,41.22 kg
same,Total Weight Gain (d 21-49),[2]; 3 PPM in feed,2.09** kg
same,Viscera Weight,[2]; 3 PPM in feed,265.82 g
same,Weight Gain Period 1 (d 21-35),[2]; 3 PPM in feed,0.96* kg
same,Weight Gain Period 2 (d 35-49),[2]; 3 PPM in feed,1.12** kg
same,Feed Efficiency F/G,[2]; 3 PPM in feed,2.04
same,improvement of feed efficiency (feed/gain) compared with control,"[2]; 3 PPM, P=0.1426",6.85%
same,"increase in bone-in, skin-on, leg quarters weight","[2]; 3 PPM, P=0.0001",10.63%
same,increase in hot carcass weights over control,"[2]; 3 PPM, P=0.0001",6.50%
same,decrease in viscera weights compared to control,"[2]; 3 PPM, P=0.4004",1.54%
same,increase in weight gain over control,"[2]; 3 PPM, entire 28-day treatment period, P=0.0051",5.03%
same,increase in weight gain over control,"[2]; 3 PPM, first 14 days of the treatment period, P=0.0395",3.22%
same,increase in weight gain over control,"[2]; 3 PPM, last 14 days of treatment, P=0.0064",6.67%
same,"Bone-in, Skin-on Breast Weight",[2]; 15 PPM in feed,600.55 g
same,"Bone-in, Skin-on leg Quarter Weight",[2]; 15 PPM in feed,635.36** g
same,Dressing Percentage,[2]; 15 PPM in feed,71.16**
same,Fat Pad Weight,[2]; 15 PPM in feed,49.16 g
same,Final Weight Day 49,[2]; 15 PPM in feed,2.70 kg
same,Hot Carcass Weight,[2]; 15 PPM in feed,1928.17* g
same,Interim Weight Day 35,[2]; 15 PPM in feed,1.63 kg
same,Pen Feed Intake,[2]; 15 PPM in feed,39.09 kg
same,Total Weight Gain (d 21-49),[2]; 15 PPM in feed,2.01 kg
same,Viscera Weight,[2]; 15 PPM in feed,261.08 g
same,Weight Gain Period 1 (d 21-35),[2]; 15 PPM in feed,0.94 kg
same,Weight Gain Period 2 (d 35-49),[2]; 15 PPM in feed,1.07 kg
same,Feed Efficiency F/G,[2]; 15 PPM in feed,2.09
same,improvement of feed efficiency (feed/gain) compared with control,"[2]; 15 PPM, P=0.3594",4.57%
same,"increase in bone-in, skin-on, leg quarters weight","[2]; 15 PPM, P=0.0003",5.60%
same,increase in hot carcass weights over control,"[2]; 15 PPM, P=0.0434",2.90%
same,decrease in viscera weights compared to control,"[2]; 15 PPM, P=0.0764",3.29%
same,increase in weight gain over control,"[2]; 15 PPM, entire 28-day treatment period, P=0.5419",1.01%
same,increase in weight gain over control,"[2]; 15 PPM, first 14 days of the treatment period, P=0.7600",1.08%
same,increase in weight gain over control,"[2]; 15 PPM, last 14 days of treatment, P=0.5028",1.90%
same,effect on fat pad weight (fat accretion),"[2]; at either dose (3 PPM, 15 PPM)",no significant effect
same,increase in breast muscle weight (bone and skin attached),"[2]; high dose (15 PPM), P=0.5351",1.06%
same,increase in breast muscle weight (bone and skin attached),"[2]; low dose (3 PPM), P=0.0227",4.00%

# — US6841563B1, “Aryloxy propanolamines for improving livestock production” (Eli Lilly and Company, priority 1999, dated 2005)
